pIC50: −log10 of the molar value.

For one test, the target named is T1, hROMK (hKir1.1) (Homo sapiens, UniProt P48048).
T1 construct: expressed in transfected cells
T1 sequence (P48048 1-391): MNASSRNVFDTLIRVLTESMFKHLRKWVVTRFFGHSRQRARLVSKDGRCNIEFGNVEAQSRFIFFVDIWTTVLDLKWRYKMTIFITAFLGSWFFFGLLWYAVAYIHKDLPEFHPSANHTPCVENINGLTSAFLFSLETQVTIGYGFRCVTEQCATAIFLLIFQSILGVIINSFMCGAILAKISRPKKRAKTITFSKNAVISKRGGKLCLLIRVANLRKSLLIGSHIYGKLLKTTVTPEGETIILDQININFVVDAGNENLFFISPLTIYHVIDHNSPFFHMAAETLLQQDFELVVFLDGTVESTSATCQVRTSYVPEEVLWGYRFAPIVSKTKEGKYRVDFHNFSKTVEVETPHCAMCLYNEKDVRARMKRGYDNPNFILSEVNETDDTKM
Briefly: Thallium Flux Assay. The test is classed as cell-based. The settings on record: HEK293 cells stably expressing hROMK; FLIPR-Tetra, 384 wells; read-out: Thallium Flux IC50. On the procedure: Several assays may be used to measure functional inhibition of the ROMK channel by compounds of the instant invention. One assay that was used to test the activity of compounds in the Examples is the functional ^86Rb^+ efflux assay described below, that measures the ability of ROMK to permeate ^86Rb^+, in the absence or presence of test compound. Under control conditions, cells loaded with ^86Rb^+ and incubated in Rb^+-free medium display a time-dependent efflux of the isotope, the rate of which depends on number of functional channels. When cells are incubated in the presence of a channel inhibitor, efflux of ^86Rb^+ is prevented in a concentration-dependent manner, and IC50 values of inhibition by compounds can be accurately determined. This assay has been established with cell lines expressing either human, rat or dog ROMK channels, and can operate in 96- or 384-well format. Importantly, the human, rat, and dog ^86Rb^+ efflux assays can be carried out in the presence of up to 100% serum allowing, therefore, an accurate estimation of the effect of protein binding on the inhibitory activity of compounds of interest. Another ROMK functional assay used to test the activity of compounds in the Examples (described below) makes use of the ability of thallium to permeate through open ROMK channels and increase the fluorescence of a dye previously loaded into the cells. Under control conditions, cells loaded with dye and exposed to thallium-containing medium display a time-dependent increase in fluorescence, the rate of which depends on number of functional channels. When cells are incubated in the presence of a channel inhibitor, the increase in fluorescence is attenuated in a concentration-dependent manner, and IC50 values of inhibition by compounds can be accurately determined. This assay has been established with cell lines expressing either human, or rat ROMK channels, and operates in 384-well format.
HEK293 cells stably expressing hROMK (hKir1.1) were grown at 37° C. in a 10% CO2 humidified incubator in complete growth media: Dulbecco's Modified Eagle Medium supplemented with non-essential amino acids, Penicillin/Streptomycin/Glutamine, G418 and FBS. At >80% confluency, aspirate the media from the flask and rinse with 10 mL Calcium/Magnesium-free PBS. Add 5 mL of 1× trypsin (prepared in Ca/Mg Free PBS) to T-225 flask and return flask to 37° C./CO2 incubator for 2-3 minutes. To dislodge the cell, gently bang the side of the flask with your hand. Triturate the cells completely and then transfer the cells to 25 mL complete media. Centrifuge at 1,500 rpm for 6 min followed by resuspension in complete growth media and determine cell concentration. For typical re-seeding, 4E6 cells/T-225 flask will attain >80% confluency in 4 days. Under ideal growth conditions and appropriate tissue culture practices, this cell line is stable for 40-45 passages.
• FluxOR™ Reagent (Component A) • FluxOR™ Assay Buffer (Component B)—10× Concentrate • PowerLoad™ Concentrate (Component C)—100× Concentrate • Probenecid (Component D)—Lyophilized sample is kept at −20° C. Water soluble, 100× after solubilization in 1 mL water. […] Store at 4° C. • Thallium sulfate (Tl2SO4) Concentrate (Component G)—50 mM in water. […]
The term pIC50 denotes −log10 of the IC50, conventionally taken in molar units. For the compound `Cc1c(CCN2CCN(C[C@H](O)c3ccc4c(c3C)COC4=O)CC2=O)ccc2c1COC2=O` [Example 52, 4-[(2R)-2-hydroxy-2-(4-methyl-1-oxo-1,3-dihydro-2-benzofuran-5-yl)ethyl]-1-[2-(4-methyl-1-oxo-1,3-dihydro-2-benzofuran-5-yl)ethyl]piperazin-2-one], the negative logarithm of the IC50 (pIC50) was 6.63.

`COc1ccc(C(=O)CN2CCN(C[C@H](O)c3ccc4c(c3C)COC4=O)CC2=O)c(C)c1C#N` [Example 50, 3-({4-[(2R)-2-Hydroxy-2-(4-methyl-1-oxo-1,3-dihydro-2-benzofuran-5-yl)ethyl]-2-oxopiperazin-1-yl}acetyl)-6-methoxy-2-methylbenzonitrile]: the negative-log IC50 (pIC50) is 6.71.

With `Cc1c(CCN2CCN(C[C@@H](O)c3ccc4c(c3C)COC4=O)CC2=O)ccc2c1COC2=O` [Example 53, 4-[(2S)-2-hydroxy-2-(4-methyl-1-oxo-1,3-dihydro-2-benzofuran-5-yl)ethyl]-1-[2-(4-methyl-1-oxo-1,3-dihydro-2-benzofuran-5-yl)ethyl]piperazin-2-one], the negative-log IC50 (pIC50) is 6.18.

Take `Cc1c(CCN2CCN(CCc3ccc(C#N)cn3)C(=O)C2)ccc2c1COC2=O` [Example 54, 6-(2-{4-[2-(4-Methyl-1-oxo-1,3-dihydro-2-benzofuran-5-yl)ethyl]-2-oxopiperazin-1-yl}ethyl)pyridine-3-carbonitrile]: the pIC50 is 6.11.

For the compound `Cc1c(C(=O)CN2CCN(C[C@H](O)c3ccc4c(c3C)COC4=O)CC2=O)ccc(F)c1C#N` [Example 51, 6-Fluoro-3-({4-[(2R)-2-hydroxy-2-(4-methyl-1-oxo-1,3-dihydro-2-benzofuran-5-yl)ethyl]-2-oxopiperazin-1-yl}acetyl)-2-methylbenzonitrile], the pIC50 is 6.90.

`Cc1c([C@@H](O)CN2CCN(C3CCc4cc(C#N)ccc4C3)C(=O)C2)ccc2c1COC2=O` (stereo partly drawn) [Example 47, 6-{4-[(2R)-2-Hydroxy-2-(4-methyl-1-oxo-1,3-dihydro-2-benzofuran-5-yl)ethyl]-2-oxopiperazin-1-yl}-5,6,7,8-tetrahydronaphthalene-2-carbonitrile]: the pIC50 was 7.22.

For the compound `Cc1c(C(O)CN2CCN(C[C@@H](O)c3ccc4c(c3C)COC4=O)CC2=O)ccc2c1COC2=O` (stereo partly drawn) [Example 46, 4-[(2S)-2-Hydroxy-2-(4-methyl-1-oxo-1,3-dihydro-2-benzofuran-5-yl)ethyl]-1-[2-hydroxy-2-(4-methyl-1-oxo-1,3-dihydro-2-benzofuran-5-yl)ethyl]piperazin-2-one], the pIC50 is 6.57.

Turning to `Cc1c(C(=O)CN2CCN(C[C@H](O)c3ccc4c(c3C)COC4=O)CC2=O)ccc2c1COC2=O` [Example 48, 4-[(2R)-2-Hydroxy-2-(4-methyl-1-oxo-1,3-dihydro-2-benzofuran-5-yl)ethyl]-1-[2-(4-methyl-1-oxo-1,3-dihydro-2-benzofuran-5-yl)-2-oxoethyl]piperazin-2-one], the pIC50 is 7.10.

Take `Cc1c(C(O)CN2CCN(C[C@H](O)c3ccc4c(c3C)COC4=O)CC2=O)ccc2c1COC2=O` (stereo partly drawn) [Example 45, 4-[(2R)-2-Hydroxy-2-(4-methyl-1-oxo-1,3-dihydro-2-benzofuran-5-yl)ethyl]-1-[2-hydroxy-2-(4-methyl-1-oxo-1,3-dihydro-2-benzofuran-5-yl)ethyl]piperazin-2-one]: the pIC50 was 6.17.

As to `Cc1cc2c(cc1C(O)CN1CCN(C3CCc4cc(C#N)ccc4C3)C(=O)C1)COC2=O` (stereo not shown) [Example 49, 6-{4-[2-Hydroxy-2-(6-methyl-1-oxo-1,3-dihydro-2-benzofuran-5-yl)ethyl]-2-oxopiperazin-1-yl}-5,6,7,8-tetrahydronaphthalene-2-carbonitrile], the negative-log IC50 (pIC50) is 7.05.

`Cc1c(C(O)CN2CCN(CCc3ccc(C#N)cn3)C(=O)C2)ccc2c1COC2=O` (single isomer, unassigned) [Example 55, 6-(2-{4-[2-Hydroxy-2-(4-methyl-1-oxo-1,3-dihydro-2-benzofuran-5-yl)ethyl]-2-oxopiperazin-1-yl}ethyl)pyridine-3-carbonitrile]: the pIC50 was 6.51.

The same test, now with this note: text of Example 55; separated stereo-isomer; read-out: IC50 in the Thallium Flux Assay.
For the compound `Cc1c(C(O)CN2CCN(CCc3ccc(C#N)cn3)C(=O)C2)ccc2c1COC2=O` (single isomer, unassigned) [Isomer A, 6-(2-{4-[2-Hydroxy-2-(4-methyl-1-oxo-1,3-dihydro-2-benzofuran-5-yl)ethyl]-2-oxopiperazin-1-yl}ethyl)pyridine-3-carbonitrile], the pIC50 is below 6.00.

The test is the same for the next values; noted with them: text of Example 55; separated stereo-isomers.
Consider `Cc1c(C(O)CN2CCN(CCc3ccc(C#N)cn3)C(=O)C2)ccc2c1COC2=O` (single isomer, unassigned) [Example 55, 6-(2-{4-[2-Hydroxy-2-(4-methyl-1-oxo-1,3-dihydro-2-benzofuran-5-yl)ethyl]-2-oxopiperazin-1-yl}ethyl)pyridine-3-carbonitrile], for which the “potency in the Thallium Flux Assay compared with Isomer A” value is reported as “more potent”.
